Assay results taken from PMC7156458, “Synthetic biology based construction of biological activity-related library of fungal decalin-containing diterpenoid pyrones” (Nature Communications, 2020).
“And” between values parts separate entries of the source, which are not always exact repeats. Identical values can stand only once. Like-named read-outs stand apart in the source and are kept apart here.

What was measured:
[1] = system: l(2)mbn cells; experiment: cytotoxicity in Drosophila l(2)mbn cells; type: cell-based; settings: for Luminescence Raw2: replicate 2; for Luminescence Raw1: replicate 1; for IC50: Drosophila melanogaster, cytotoxicity
Method: (§1) We screened the DDPs on the Drosophila assay system for cytotoxicity, inhibitory activity of innate immune signalling and insecticidal activity. The cytotoxicity of the DDPs was evaluated using two cell lines, embryonic macrophage-derived DL1 cells[58]–[60] and larval blood cell-derived l(2)mbn cells, and their IC50 values are listed in Supplementary Table 23.

[2] = cytotoxicity in Drosophila DL1 cells; type: cell-based; settings: Drosophila, DL1 cells (embryonic macrophage-derived), DL1 cells
Method: as §1

[3] = system: DL1 cells; experiment: cytotoxicity in Drosophila DL1 cells; type: cell-based; settings: for IC50: Drosophila melanogaster
Method: as §1

[4] = system: NCI-H460; experiment: cells; parameters: species or system JFCR39 human cancer cell lines; JFCR39 panel growth inhibition, sulforhodamine B total protein after 48 h; settings: for GI50: Homo sapiens, NCI-H460, 48 h
How it was run: (§2)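 Cells are grown in kanamycin-supplemented RPMI-1640 with 5% FBS (37°C, humidified 5% CO2), then treated with compound for 48 hours. Antiproliferative effect is scored by sulforhodamine B protein staining and expressed as GI50, duplicate determinations.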

[5] = system: A549; experiment: cells; parameters: species or system JFCR39 human cancer cell lines; JFCR39 panel growth inhibition, sulforhodamine B total protein after 48 h; settings: for GI50: Homo sapiens, A549, 48 h
How it was run: as §2

[6] = system: ACHN; experiment: cells; parameters: species or system JFCR39 human cancer cell lines; JFCR39 panel growth inhibition, sulforhodamine B total protein after 48 h; settings: 48 h
How it was run: as §2

[7] = system: MCF-7; experiment: cells; parameters: species or system JFCR39 human cancer cell lines; JFCR39 panel growth inhibition, sulforhodamine B total protein after 48 h; settings: Homo sapiens, MCF7, 48 h
How it was run: as §2

[8] = system: LOX-IMVI; experiment: cells; parameters: species or system JFCR39 human cancer cell lines; JFCR39 panel growth inhibition, sulforhodamine B total protein after 48 h; settings: 48 h; for GI50: Homo sapiens, LOX IMVI
How it was run: as §2

[9] = system: KM-12; experiment: cells; parameters: species or system JFCR39 human cancer cell lines; JFCR39 panel growth inhibition, sulforhodamine B total protein after 48 h; settings: for GI50: Homo sapiens, KM12, 48 h
How it was run: as §2

[10] = system: BSY-1; experiment: cells; parameters: species or system JFCR39 human cancer cell lines; JFCR39 panel growth inhibition, sulforhodamine B total protein after 48 h; settings: for GI50: BSY-1, 48 h
How it was run: as §2

[11] = system: MKN-B; experiment: cells; parameters: species or system JFCR39 human cancer cell lines; JFCR39 panel growth inhibition, sulforhodamine B total protein after 48 h; settings: 48 h
How it was run: as §2

[12] = system: NCI-H226; experiment: cells; parameters: species or system JFCR39 human cancer cell lines; JFCR39 panel growth inhibition, sulforhodamine B total protein after 48 h; settings: for GI50: Homo sapiens, NCI-H226, 48 h
How it was run: as §2

[13] = system: human immunodeficiency virus-1 (HIV-1); experiment: anti-HIV MAGI assay; type: cell-based; settings: anti-HIV
From the text: We examined the inhibitory activities of DDPs against various species of bacteria (both gram-negative and gram-positive bacteria), fungi and viruses. […] In contrast, preliminary screening of the DDPs for anti-viral agents with hepatitis B virus (HBV), measles virus (MV), Epstein-Barr virus (EBV), herpes simplex virus (HSV) and human immunodeficiency virus-1 (HIV-1) indicated their selective inhibition of HIV.

[14] = cytotoxicity in Drosophila l(2)mbn cells; type: cell-based; settings: Drosophila, l(2)mbn cells (larval blood cell-derived)
Method: as §1

[15] = replicate 1, relative to DMSO 1%, read-out: % viability, viability 1
[16] = replicate 2, relative to DMSO 1%, read-out: % viability, viability 2
[17] = DL1 cells, 0.04 µM, replicate 1
[18] = DL1 cells, 0.04 µM, replicate 2
[19] = DL1 cells, cytotoxicity, average of two replicates, read-out: IC50 Average
[20] = DL1 cells, cytotoxicity, replicate 1, read-out: IC50 (1)
[21] = DL1 cells, cytotoxicity, replicate 2, read-out: IC50 (2)
[22] = 48 h, inhibitor, Log GI50, 48 h

## C=C1CC[C@@H]2[C@](C)(CC[C@H]3O[C@H](C=C(C)C)C[C@@]23C)[C@@H]1Cc1c(OC)oc(CO)c(C(=O)OC)c1=O [Compound 21]
[1]; 0.2 µM
  Luminescence Raw2: 2750409
[1]; 0.4 µM
  Luminescence Raw1: 2719029
  Luminescence Raw2: 2813892
[1]; 0.8 µM
  Luminescence Raw1: 2929318
  Luminescence Raw2: 2922825
[1]; 1 µM
  Luminescence Raw1: 2523535
[1]; average of two replicates, read-out: IC50 Average
  IC50: 2.66 µM
[1]; average±SEM, read-out: IC50
  IC50: 2.66 ± 0.22 µM
[1]; replicate 1, read-out: IC50 (1)
  IC50: 2.44 µM
[1]; replicate 2, read-out: IC50 (2)
  IC50: 2.88 µM
[2]; [15]
  viability at 0.04 µM: 5.78%
  viability at 0.2 µM: 4.01%
  viability at 1 µM: 3.52%
  viability at 4 µM: 3.47%
  viability at 10 µM: 3.5%
  viability at 20 µM: 2.31%
[2]; [16]
  viability at 0.04 µM: 8.79%
  viability at 0.2 µM: 4.17%
  viability at 1 µM: 2.4%
  viability at 4 µM: 3.41%
  viability at 10 µM: 3.92%
  viability at 20 µM: 3.01%
[3]; [17]
  Luminescence Raw1: 237970
[3]; [18]
  Luminescence Raw2: 362006
[3]; DL1 cells, 0.2 µM, replicate 1
  Luminescence Raw1: 165136
[3]; DL1 cells, 0.2 µM, replicate 2
  Luminescence Raw2: 171986
[3]; DL1 cells, 1 µM, replicate 1
  Luminescence Raw1: 144944
[3]; DL1 cells, 1 µM, replicate 2
  Luminescence Raw2: 98793
[3]; DL1 cells, 4 µM, replicate 1
  Luminescence Raw1: 143141
[3]; DL1 cells, 4 µM, replicate 2
  Luminescence Raw2: 140618
[3]; DL1 cells, 10 µM, replicate 1
  Luminescence Raw1: 144223
[3]; DL1 cells, 10 µM, replicate 2
  Luminescence Raw2: 161530
[3]; DL1 cells, 20 µM, replicate 1
  Luminescence Raw1: 95187
[3]; DL1 cells, 20 µM, replicate 2
  Luminescence Raw2: 124032
[3]; [19]
  IC50: < 0.04 µM
[3]; [20]
  IC50: < 0.04 µM
[3]; [21]
  IC50: < 0.04 µM
[3]; DL-1 cell line, cell growth, read-out: IC50
  IC50: < 0.04 µM
[4]
  GI50: 12.1 µM
[5]
  GI50: 18.5 µM
[6]; Homo sapiens, ACHN
  GI50: 12.2 µM
[7]
  GI50: 14.2 µM
[8]
  GI50: 15.1 µM
[9]
  GI50: 18.2 µM
[10]
  GI50: 14.9 µM
[11]
  GI50: 16.8 µM
[12]
  GI50: 18.2 µM

## C=C1CCC2C(C)(CCC=C(C)C)C(O)CCC2(C)C1Cc1c(OC)oc(CO)c(C)c1=O (stereo not drawn) [Compound 16]
[13]; average of numeric determinations, read-out: Avg. EC50
  EC50: 0.0483 µM
[13]; single determinations, read-out: Efficacy (EC50)
  EC50: 0.0556 µM and 0.0364 µM and 0.0546 µM and 0.0464 µM
[4]; [22]
  Log GI50: -6.167 M
[5]; [22]
  Log GI50: -5.056 M
[6]; inhibitor, Log GI50, 48 h
  Log GI50: -5.541 M
[7]
  GI50: 4.46 µM
[8]; inhibitor, Log GI50, 48 h
  Log GI50: -5.224 M
[9]; [22]
  Log GI50: -4.862 M
[10]; [22]
  Log GI50: -4.961 M
[11]; inhibitor, Log GI50, 48 h
  Log GI50: -5.237 M
[12]; [22]
  Log GI50: -5.269 M

## C=C1CCC2C(C)(CC(=O)C=C(C)C)C(O)CCC2(C)C1Cc1c(O)c(C)c(C)oc1=O (stereo not drawn) [Compound 7]
[14]; [15]
  viability at 0.04 µM: 135%
  viability at 0.2 µM: 129%
  viability at 1 µM: 139%
  viability at 4 µM: 129%
  viability at 10 µM: 121%
  viability at 20 µM: 40.7%
[14]; [16]
  viability at 0.04 µM: 130%
  viability at 0.2 µM: 135%
  viability at 1 µM: 132%
  viability at 4 µM: 131%
  viability at 10 µM: 115%
  viability at 20 µM: 39.5%
[1]; 0.04 µM
  Luminescence Raw1: 3452362
  Luminescence Raw2: 3328631
[1]; 0.2 µM
  Luminescence Raw1: 3304462
  Luminescence Raw2: 3461380
[1]; 1 µM
  Luminescence Raw1: 3578980
  Luminescence Raw2: 3388873
[1]; 4 µM
  Luminescence Raw1: 3312398
  Luminescence Raw2: 3370476
[1]; 10 µM
  Luminescence Raw1: 3097048
  Luminescence Raw2: 2956371
[1]; 20 µM
  Luminescence Raw1: 1044161
  Luminescence Raw2: 1013149
[1]; average±SEM, read-out: IC50
  IC50: > 20 µM
[2]; [15]
  viability at 0.04 µM: 129%
  viability at 0.2 µM: 133%
  viability at 1 µM: 120%
  viability at 4 µM: 83.5%
  viability at 10 µM: 36.5%
  viability at 20 µM: 13.4%
[2]; [16]
  viability at 0.04 µM: 132%
  viability at 0.2 µM: 135%
  viability at 1 µM: 138%
  viability at 4 µM: 117%
  viability at 10 µM: 39.8%
  viability at 20 µM: 14.2%
[3]; [17]
  Luminescence Raw1: 2666434
[3]; [18]
  Luminescence Raw2: 2708996
[3]; DL1 cells, 0.2 µM, replicate 1
  Luminescence Raw1: 2732080
[3]; DL1 cells, 0.2 µM, replicate 2
  Luminescence Raw2: 2789792
[3]; DL1 cells, 1 µM, replicate 1
  Luminescence Raw1: 2478515
[3]; DL1 cells, 1 µM, replicate 2
  Luminescence Raw2: 2838847
[3]; DL1 cells, 4 µM, replicate 1
  Luminescence Raw1: 1720040
[3]; DL1 cells, 4 µM, replicate 2
  Luminescence Raw2: 2405658
[3]; DL1 cells, 10 µM, replicate 1
  Luminescence Raw1: 751779
[3]; DL1 cells, 10 µM, replicate 2
  Luminescence Raw2: 819211
[3]; DL1 cells, 20 µM, replicate 1
  Luminescence Raw1: 275091
[3]; DL1 cells, 20 µM, replicate 2
  Luminescence Raw2: 293480
[3]; [19]
  IC50: 8.75 µM
[3]; DL1 cells, cytotoxicity, average±SEM, read-out: IC50
  IC50: 8.75 ± 0.64 µM
[3]; [20]
  IC50: 8.12 µM
[3]; [21]
  IC50: 9.39 µM
[13]; Human immunodeficiency virus 1, MAGI, average of numeric determinations, read-out: Avg. EC50
  EC50: 0.163 µM
[4]
  GI50: 11.6 µM
[5]
  GI50: 66.7 µM
[7]
  GI50: 22.6 µM
[8]
  GI50: 12.2 µM
[9]
  GI50: 56 µM
[10]
  GI50: 37 µM
[11]
  GI50: 37.7 µM
[12]
  GI50: 33.4 µM
